This is an account of results in ChEMBL document CHEMBL5303573, “Mapping human microbiome drug metabolism by gut bacteria and their genes” (Nature, 2019).

The conditions of data set [1]: parabacteroides johnsonii, 12 h, 2 µM.
Description: The drug is tested on Parabacteroides johnsonii strain: DSM18315 for biotransformation. The drug concentrations were measured before and after a 12-h incubation by liquid-chromatography-coupled mass spectrometry (LC–MS)
For data set [2] the following is noted: parabacteroides distasonis, 12 h, 2 µM.
Description: The drug is tested on Parabacteroides distasonis strain: ATCC8503 for biotransformation. The drug concentrations were measured before and after a 12-h incubation by liquid-chromatography-coupled mass spectrometry (LC–MS)
A short description of data set [3]: The drug is tested on Clostridium scindens strain: ATCC35704 for biotransformation. The drug concentrations were measured before and after a 12-h incubation by liquid-chromatography-coupled mass spectrometry (LC–MS). Particulars: 2 µM.
Data set [4] in a line: The drug is tested on Enterococcus faecalis strain: V583 for biotransformation. The drug concentrations were measured before and after a 12-h incubation by liquid-chromatography-coupled mass spectrometry (LC–MS). Particulars: 2 µM.
The conditions of data set [5]: bacteroides eggerthii, 12 h, 2 µM.
Description: The drug is tested on Bacteroides eggerthii strain: DSM20697 for biotransformation. The drug concentrations were measured before and after a 12-h incubation by liquid-chromatography-coupled mass spectrometry (LC–MS)
Data set [6] can be described thus: The drug is tested on Bacteroides finegoldii strain: DSM17565 for biotransformation. The drug concentrations were measured before and after a 12-h incubation by liquid-chromatography-coupled mass spectrometry (LC–MS). The conditions noted are these: 2 µM.
A short description of data set [7]: The drug is tested on Clostridium symbiosum strain: ATCC14940 for biotransformation. The drug concentrations were measured before and after a 12-h incubation by liquid-chromatography-coupled mass spectrometry (LC–MS). Particulars: 2 µM.
The nature of data set [8]: The drug is tested on Odoribacter splanchnicus strain: fecal isolate for biotransformation. The drug concentrations were measured before and after a 12-h incubation by liquid-chromatography-coupled mass spectrometry (LC–MS). Particulars: 2 µM.
Data set [9] is described as follows: The drug is tested on Bacteroides caccae strain: ATCC43185 for biotransformation. The drug concentrations were measured before and after a 12-h incubation by liquid-chromatography-coupled mass spectrometry (LC–MS). The conditions noted are these: 2 µM.
For data set [10] the following is noted: segatella copri, 12 h, 2 µM.
Description: The drug is tested on Prevotella copri strain: DSM18205 for biotransformation. The drug concentrations were measured before and after a 12-h incubation by liquid-chromatography-coupled mass spectrometry (LC–MS)
The nature of data set [11]: The drug is tested on Collinsella aerofaciens strain: ATCC25986 for biotransformation. The drug concentrations were measured before and after a 12-h incubation by liquid-chromatography-coupled mass spectrometry (LC–MS). Particulars: 2 µM.
Data set [12] in a line: The drug is tested on Eubacterium rectale strain: ATCC33656 for biotransformation. The drug concentrations were measured before and after a 12-h incubation by liquid-chromatography-coupled mass spectrometry (LC–MS). Particulars: agathobacter rectalis, 2 µM.
Data set [13] is described as follows: The drug is tested on Bacteroides cellulosilyticus strain: DSM14838 for biotransformation. The drug concentrations were measured before and after a 12-h incubation by liquid-chromatography-coupled mass spectrometry (LC–MS). The conditions noted are these: 2 µM.
Data set [14] is described as follows: The drug is tested on Alistipes indistinctus strain: DSM22520 for biotransformation. The drug concentrations were measured before and after a 12-h incubation by liquid-chromatography-coupled mass spectrometry (LC–MS). Particulars: 2 µM.
A short description of data set [15]: The drug is tested on Bacteroides uniformis strain: ATCC8492 for biotransformation. The drug concentrations were measured before and after a 12-h incubation by liquid-chromatography-coupled mass spectrometry (LC–MS). Particulars: 2 µM.
The conditions of data set [16]: bacteroides thetaiotaomicron, 12 h, 2 µM.
Description: The drug is tested on Bacteroides thetaiotaomicron strain: 7330 for biotransformation. The drug concentrations were measured before and after a 12-h incubation by liquid-chromatography-coupled mass spectrometry (LC–MS)
Data set [17] is described as follows: The drug is tested on Clostridium sp. strain: fecal isolate for biotransformation. The drug concentrations were measured before and after a 12-h incubation by liquid-chromatography-coupled mass spectrometry (LC–MS). Particulars: 2 µM.
Data set [18] in a line: The drug is tested on Bifidobacterium ruminantium strain: fecal isolate for biotransformation. The drug concentrations were measured before and after a 12-h incubation by liquid-chromatography-coupled mass spectrometry (LC–MS). The conditions noted are these: 2 µM.
The nature of data set [19]: The drug is tested on Escherichia coli strain: BW25113 for biotransformation. The drug concentrations were measured before and after a 12-h incubation by liquid-chromatography-coupled mass spectrometry (LC–MS). Particulars: 2 µM.

Regarding `CC(C)N(CCC(C(N)=O)(c1ccccc1)c1ccccn1)C(C)C.O=P(O)(O)O` (configuration not stated) [DISOPYRAMIDE PHOSPHATE], the “Bacterial Biotransformation” value in data set [1], in data set [2], in data set [3], in data set [4], in data set [5] and in data set [6] was “Compound NOT metabolized” throughout. The “Bacterial Biotransformation” value in [7], in data set [8], in data set [9], in data set [10], in data set [11] and in data set [12] was “Compound NOT metabolized” throughout. Besides, the “Bacterial Biotransformation” value in data set [13] is listed as “Compound NOT metabolized”.
In the case of `CC(=O)OCC(CCn1cnc2cnc(N)nc21)COC(C)=O` [FAMCICLOVIR], the “Bacterial Biotransformation” value in [14] is “Compound metabolized”; in data set [1], “Compound metabolized”; in data set [15], “Compound metabolized”; in data set [2] it was “Compound metabolized”; in [3], “Compound NOT metabolized”; in data set [16], “Compound metabolized”. The “Bacterial Biotransformation” value is reported as “Compound metabolized” in data set [5]; “Compound metabolized” in [6]; “Compound NOT metabolized” in data set [7]; “Compound metabolized” in data set [8]; “Compound metabolized” in [9]; “Compound NOT metabolized” in [17]. For the same compound, the “Bacterial Biotransformation” value was “Compound metabolized” in data set [10], “Compound NOT metabolized” in [11], “Compound NOT metabolized” in data set [12] and “Compound metabolized” in data set [13].
`Cc1ccc(NC(=O)c2ccc(CN3CCN(C)CC3)cc2)cc1Nc1nccc(-c2cccnc2)n1` [IMATINIB]: the “Bacterial Biotransformation” value in [14], in data set [1], in data set [15], in data set [2], in [4] and in data set [16] was “Compound NOT metabolized” in each case. Further, the “Bacterial Biotransformation” value in [5], in data set [6], in data set [18], in data set [8], in data set [9] and in [10] was “Compound NOT metabolized” each time. Further, the “Bacterial Biotransformation” value in data set [11] and in data set [13] was “Compound NOT metabolized” throughout.
In the case of `CC(CCc1ccccc1)NCC(O)c1ccc(O)c(C(N)=O)c1` (configuration not stated) [LABETALOL], the “Bacterial Biotransformation” value in [1], in [15], in data set [2], in [4], in data set [16] and in data set [5] was “Compound NOT metabolized” each time. Also, the “Bacterial Biotransformation” value in data set [6], in [7], in [8], in data set [19], in data set [9] and in data set [17] was “Compound NOT metabolized” throughout. Besides, the “Bacterial Biotransformation” value in [10], in [11], in [12] and in data set [13] was “Compound NOT metabolized” each time.
In the case of `CCN(CC)CCNC(=O)c1cc(Cl)c(N)cc1OC` [METOCLOPRAMIDE], the “Bacterial Biotransformation” value in [1], in data set [15], in [2], in data set [3], in data set [4] and in data set [16] was “Compound NOT metabolized” throughout. For the same compound, the “Bacterial Biotransformation” value in [5], in data set [6], in data set [18], in data set [7], in data set [8] and in data set [19] was “Compound NOT metabolized” in each case. Besides, the “Bacterial Biotransformation” value in data set [9], in [10], in [11], in [12] and in [13] was “Compound NOT metabolized” throughout.
On to `COc1ccc2cc([C@H](C)C(=O)O)ccc2c1` [NAPROXEN], for which the “Bacterial Biotransformation” value in data set [15], in data set [2], in [3], in data set [4], in data set [16] and in [5] was “Compound NOT metabolized” in each case. Moreover, the “Bacterial Biotransformation” value in data set [7], in [8], in [19], in data set [9], in data set [17] and in [11] was “Compound NOT metabolized” each time. Besides, the “Bacterial Biotransformation” value in data set [12] and in data set [13] was “Compound NOT metabolized” throughout.
`CC(C)[C@H]1CC[C@H](C(=O)N[C@H](Cc2ccccc2)C(=O)O)CC1` [NATEGLINIDE]: the “Bacterial Biotransformation” value in data set [14] is listed as “Compound NOT metabolized”; in data set [15], “Compound metabolized”; in [2], “Compound NOT metabolized”; in [3], “Compound NOT metabolized”; in data set [4], “Compound NOT metabolized”; in data set [16], “Compound NOT metabolized”. In addition, the “Bacterial Biotransformation” value in [5] is “Compound NOT metabolized”; in [6], “Compound NOT metabolized”; in data set [18] it was “Compound NOT metabolized”; in data set [7], “Compound NOT metabolized”; in data set [8], “Compound metabolized”; in data set [19], “Compound NOT metabolized”. The “Bacterial Biotransformation” value in data set [9], in data set [17], in data set [10], in data set [11] and in [12] was “Compound NOT metabolized” each time.
For `Cc1ccnc2c1NC(=O)c1cccnc1N2C1CC1` [NEVIRAPINE], the “Bacterial Biotransformation” value in data set [14], in data set [1], in [2], in data set [3], in [4] and in data set [16] was “Compound NOT metabolized” each time. The “Bacterial Biotransformation” value in data set [5] is reported as “Compound NOT metabolized”; in data set [6] it was “Compound NOT metabolized”; in data set [18], “Compound NOT metabolized”; in [7], “Compound NOT metabolized”; in data set [9], “Compound NOT metabolized”; in data set [17], “Compound metabolized”. Further, the “Bacterial Biotransformation” value in data set [10], in [11] and in [13] was “Compound NOT metabolized” throughout.
